Measured values: ChEMBL document CHEMBL1201862, “PubChem BioAssay data set” (2004)
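These data come from cells grown in 96-well plates and exposed to compound for 48 hours at five concentrations. Abbreviation: GI50, concentration required for 50% inhibition of growth.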 Activity calls are given as the source filed them. No stated cut-off is given here; in the data, active = GI50 up to about 1.1 µM and inactive = higher.

What was measured:
Assay in all cases: DTP human tumour cell line panel, 48 h
[1] = system: OVCAR-4
[2] = system: NCI-H522
[3] = system: ACHN
[4] = system: SK-MEL-2
[5] = system: HCT-116
[6] = system: A549
[7] = system: SK-OV-3
[8] = system: HCC 2998
[9] = system: SF-539
[10] = system: HOP-62
[11] = system: OVCAR-3
[12] = system: OVCAR-8
[13] = system: CAKI-1
[14] = system: SNB-75
[15] = system: Malme-3M
[16] = system: SK-MEL-5
[17] = system: U-251
[18] = system: NCI-H23
[19] = system: NCI/ADR-RES

Structure (SMILES)	GI50 [1]	GI50 [2]	GI50 [3]	GI50 [4]	GI50 [5]	GI50 [6]	GI50 [7]	GI50 [8]	GI50 [9]	GI50 [10]	GI50 [11]	GI50 [12]	GI50 [13]	GI50 [14]	GI50 [15]	GI50 [16]	GI50 [17]	GI50 [18]	GI50 [19]
Cc1nc2ccccc2c(=O)n1/N=C(\N=N\c1ccccc1)c1ccccc1Cl	41 µM (inactive)	30.2 µM (inactive)	33.3 µM (inactive)	20.7 µM (inactive)	> 10 µM (inactive)	52.5 µM (inactive)	11.2 µM (inactive)	38.2 µM (inactive)	23.5 µM (inactive)	32.1 µM (inactive)	27 µM (inactive)	59.7 µM (inactive)	25.4 µM (inactive)	23.8 µM (inactive)	53 µM (inactive)	38.3 µM (inactive)	40.6 µM (inactive)	27.7 µM (inactive)	–
COc1ccc2c(c1)C(=O)Cc1ccccc1CC2	> 100 µM (inactive)	> 100 µM (inactive)	> 100 µM (inactive)	81.5 µM (inactive)	> 100 µM (inactive)	> 100 µM (inactive)	> 100 µM (inactive)	> 100 µM (inactive)	> 100 µM (inactive)	–	> 100 µM (inactive)	> 100 µM (inactive)	> 100 µM (inactive)	27.7 µM (inactive)	> 100 µM (inactive)	> 100 µM (inactive)	> 100 µM (inactive)	> 100 µM (inactive)	–
O=C(O/N=C1/CCC/C1=C\c1ccccc1)c1ccc([N+](=O)[O-])cc1	> 100 µM (inactive)	> 100 µM (inactive)	> 100 µM (inactive)	> 100 µM (inactive)	> 100 µM (inactive)	> 100 µM (inactive)	> 100 µM (inactive)	11.7 µM (inactive)	89.3 µM (inactive)	96.6 µM (inactive)	> 100 µM (inactive)	> 100 µM (inactive)	> 100 µM (inactive)	31.6 µM (inactive)	> 100 µM (inactive)	> 100 µM (inactive)	> 100 µM (inactive)	> 100 µM (inactive)	–
COC(=O)/C=C1\C(CO[Si](C)(C)C(C)(C)C)OC(n2cc(C)c(=O)n(C)c2=O)C1O[Si](C)(C)C(C)(C)C (stereo unspecified)	–	78 µM (inactive)	> 100 µM (inactive)	> 100 µM (inactive)	71.4 µM (inactive)	> 100 µM (inactive)	> 100 µM (inactive)	–	–	> 100 µM (inactive)	> 100 µM (inactive)	> 100 µM (inactive)	–	> 100 µM (inactive)	> 100 µM (inactive)	69.7 µM (inactive)	81.7 µM (inactive)	> 100 µM (inactive)	> 100 µM (inactive)
CC[N+](C)(C)c1ccc(C(=C2C=CC(=[N+](C)C)C=C2)c2ccc(N(C)C)cc2)cc1	15.1 µM (inactive)	2.79 µM (inactive)	10.8 µM (inactive)	21.1 µM (inactive)	4.2 µM (inactive)	4.45 µM (inactive)	19.4 µM (inactive)	6.17 µM (inactive)	12.8 µM (inactive)	8.34 µM (inactive)	10.5 µM (inactive)	12.8 µM (inactive)	23.7 µM (inactive)	4.76 µM (inactive)	22.8 µM (inactive)	13.4 µM (inactive)	3.94 µM (inactive)	17.7 µM (inactive)	–
Cn1nc(-c2ccccc2NC(=O)C(F)(F)F)c(=O)n(C)c1=S	19.9 µM (inactive)	19.3 µM (inactive)	24.5 µM (inactive)	26.7 µM (inactive)	38.1 µM (inactive)	50.5 µM (inactive)	> 100 µM (inactive)	46.1 µM (inactive)	29.4 µM (inactive)	69.7 µM (inactive)	18.5 µM (inactive)	23.9 µM (inactive)	33.6 µM (inactive)	5.89 µM (inactive)	37.8 µM (inactive)	> 100 µM (inactive)	27 µM (inactive)	29.2 µM (inactive)	–
CCOC(=O)C1Cc2c(ccc(OC)c2OC)C(=O)C1N (stereo unspecified)	82.2 µM (inactive)	> 100 µM (inactive)	> 100 µM (inactive)	> 100 µM (inactive)	> 100 µM (inactive)	> 100 µM (inactive)	> 100 µM (inactive)	> 100 µM (inactive)	> 100 µM (inactive)	> 100 µM (inactive)	93.1 µM (inactive)	> 100 µM (inactive)	> 100 µM (inactive)	> 100 µM (inactive)	> 100 µM (inactive)	> 100 µM (inactive)	> 100 µM (inactive)	> 100 µM (inactive)	–
CC(=O)Nc1ccc(/C=C(\NC(=O)c2ccccc2)c2nc3ccc4c(c3[nH]2)C(=O)c2ccccc2C4=O)cc1	56.8 µM (inactive)	4.9 µM (inactive)	–	48.8 µM (inactive)	12.2 µM (inactive)	12.5 µM (inactive)	72.4 µM (inactive)	> 100 µM (inactive)	17.5 µM (inactive)	> 100 µM (inactive)	12.4 µM (inactive)	22.1 µM (inactive)	5.02 µM (inactive)	9.51 µM (inactive)	> 100 µM (inactive)	21.8 µM (inactive)	16.4 µM (inactive)	21.6 µM (inactive)	–
CC(=O)n1c2c(c(=O)n1-c1ccccc1)[S+]([O-])CCC2 (stereo unspecified)	0.705 µM (active)	5.65 µM (inactive)	46.8 µM (inactive)	> 84.7 µM (inactive)	44.1 µM (inactive)	> 92.9 µM (inactive)	> 100 µM (inactive)	< 0.01 µM (active)	20.4 µM (inactive)	11.1 µM (inactive)	57.1 µM (inactive)	> 100 µM (inactive)	55.5 µM (inactive)	51.4 µM (inactive)	> 56.4 µM (inactive)	62.4 µM (inactive)	> 100 µM (inactive)	> 100 µM (inactive)	–
COc1cccc(/C=N/NC(N)=O)c1O	> 100 µM (inactive)	> 100 µM (inactive)	> 100 µM (inactive)	> 100 µM (inactive)	> 100 µM (inactive)	> 100 µM (inactive)	> 100 µM (inactive)	> 100 µM (inactive)	> 100 µM (inactive)	> 100 µM (inactive)	> 100 µM (inactive)	> 100 µM (inactive)	> 100 µM (inactive)	> 100 µM (inactive)	> 100 µM (inactive)	> 100 µM (inactive)	> 100 µM (inactive)	> 100 µM (inactive)	–
Cc1c(C(=O)O)n(C)c(=O)n(C)c1=O	> 100 µM (inactive)	> 100 µM (inactive)	> 100 µM (inactive)	> 100 µM (inactive)	> 100 µM (inactive)	> 100 µM (inactive)	> 100 µM (inactive)	> 100 µM (inactive)	> 100 µM (inactive)	> 100 µM (inactive)	> 100 µM (inactive)	> 100 µM (inactive)	> 100 µM (inactive)	> 100 µM (inactive)	> 100 µM (inactive)	> 100 µM (inactive)	> 100 µM (inactive)	> 100 µM (inactive)	–
COc1cc(-c2cc(CCC(=O)Nc3ccccc3[N+](=O)[O-])n(-c3ccc([N+](=O)[O-])cc3[N+](=O)[O-])n2)ccc1O	> 10 µM (inactive)	> 10 µM (inactive)	70.6 µM (inactive)	> 10 µM (inactive)	> 10 µM (inactive)	> 10 µM (inactive)	> 10 µM (inactive)	> 10 µM (inactive)	> 10 µM (inactive)	> 10 µM (inactive)	> 10 µM (inactive)	> 10 µM (inactive)	> 10 µM (inactive)	89.9 µM (inactive)	> 10 µM (inactive)	> 10 µM (inactive)	> 10 µM (inactive)	> 10 µM (inactive)	–
COc1cc2cccc(NC(=O)c3cc(OC)c(OC)c(OC)c3Br)c2cc1OC	9.02 µM (inactive)	11.8 µM (inactive)	11.5 µM (inactive)	19.8 µM (inactive)	11.9 µM (inactive)	14.1 µM (inactive)	22.5 µM (inactive)	28.8 µM (inactive)	15.4 µM (inactive)	17.3 µM (inactive)	13.4 µM (inactive)	12.9 µM (inactive)	17.6 µM (inactive)	26.9 µM (inactive)	18.5 µM (inactive)	3.24 µM (inactive)	22.3 µM (inactive)	8 µM (inactive)	–
CC(C)SC(NC(=O)C1C(C)(C)CCC1(C)C)C(=O)O (stereo unspecified)	–	–	> 100 µM (inactive)	> 100 µM (inactive)	> 100 µM (inactive)	> 100 µM (inactive)	> 100 µM (inactive)	> 100 µM (inactive)	> 100 µM (inactive)	> 100 µM (inactive)	–	> 100 µM (inactive)	–	> 100 µM (inactive)	–	> 100 µM (inactive)	> 100 µM (inactive)	> 100 µM (inactive)	> 100 µM (inactive)
Clc1ccc(SC(/C=C/NNC2=NN=C(c3ccccc3)C(c3ccccc3)N2)c2ccccc2)cc1 (stereo unspecified)	17.9 µM (inactive)	17.9 µM (inactive)	21 µM (inactive)	18.7 µM (inactive)	16.1 µM (inactive)	29.2 µM (inactive)	68.1 µM (inactive)	19.7 µM (inactive)	26.4 µM (inactive)	33 µM (inactive)	11.8 µM (inactive)	28.2 µM (inactive)	12.3 µM (inactive)	15.2 µM (inactive)	18.2 µM (inactive)	14.7 µM (inactive)	31.2 µM (inactive)	10.4 µM (inactive)	–
